Data published in patent US20240190856A1, “MELANOCORTIN-4 RECEPTOR AGONIST” (LG CHEM, LTD., priority 2021, published 2024).
Structures can show the parent of a compound that is named as a salt.

Biological target: MC4R (Homo sapiens, UniProt P32245)
Experiment: Binding affinity (125I-NDP-α-MSH displacement, membranes of HEK-293 cells expressing MC4R)
Set-up: expressed in transfected cells; host or cells: HEK-293 cells, membrane preparation
Conditions: 0.02 nM 125I-NDP-α-MSH, 37° C. for two hours, pH 7.0
Source text: Five subtypes of melanocortin receptor (MCR) in vivo are known, and it is known that MC4R, which is Subtype 4, is involved in energy metabolism and weight control. Since other MCR subtypes are involved in the regulation of various functions in vivo such as skin pigmentation, energy homeostasis, and exocrine functions, securing selectivity for MC4R of MC4R agonist compounds is very important in preventing possible side effects in the future. Therefore, the receptor binding abilities of MC4R agonists for each MCR subtype were measured.
After the CHO-K 1 cell line expressing human recombinant MC1R and the HEK-293 cell lines expressing MC3R, MC4R and MC5R were established, membranes were collected from each cell line. In a 96-well cell culture plate, 3 μg MC1R membrane and 0.04 nM ^125I-NDP-α-MSH per well were reacted at 37° C. for two hours. 3 μg MC3R and MC5R membrane and 0.035 nM ^125I-NDP-α-MSH were reacted at 37° C. for one hour, and […] MC4R membrane and 0.02 nM ^125I-NDP-α-MSH were reacted at 37° C. for two hours. At this time, 25 mM HEPES-KOH adsorption buffer (pH 7.0) containing MCR agonist diluted at each step concentration was added to each well and reacted. The reacted solution was transferred to a filter and washed with an adsorption buffer, and then radioactivity was measured. The value excluding the non-specific binding amount in the presence of 1 μM (MC1R) and 3 μM (MC3R, MC4R, MC5R) of NDP-α-MSH from each total binding amount was used as specific binding amounts of ^125I-NDP-α-MSH. The degree to which the ^125I-NDP-a-MSH specific binding was inhibited by the agonist diluted at each step concentration was measured. IC50 was expressed as the concentration of each agonist that inhibited specific binding of 50% of ^125I-NDP-α-MSH.
Tables 4-1 and 4-2 show the results of measuring the binding of melanocortin receptors of the compounds obtained by the above experiment in Ki (nM) units.

Sequence of MC4R (P32245 whole entry): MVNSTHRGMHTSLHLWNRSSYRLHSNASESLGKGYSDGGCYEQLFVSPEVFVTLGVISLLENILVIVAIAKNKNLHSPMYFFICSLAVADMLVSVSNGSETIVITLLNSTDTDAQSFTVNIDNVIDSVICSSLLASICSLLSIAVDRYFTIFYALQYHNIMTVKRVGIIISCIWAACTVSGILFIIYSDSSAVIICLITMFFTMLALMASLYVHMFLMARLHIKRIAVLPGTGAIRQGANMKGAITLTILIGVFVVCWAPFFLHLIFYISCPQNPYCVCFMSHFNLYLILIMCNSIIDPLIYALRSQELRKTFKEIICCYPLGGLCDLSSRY

Structure (SMILES)	Ki (Table 4-1) [nM]	Ki (Table 4-2) [nM]
CC(C)(C)C(=O)N([C@H]1C[C@@H](C(=O)N2CCOCC2)N(C(=O)[C@@H]2CN(C(C)(C)C)C[C@H]2c2ccc(F)cc2F)C1)[C@H]1CC[C@@H](C)CC1 [Example 1, N-((3S,5S)-1-((3S,4R)-1-(tert-butyl)-4-(2,4-difluorophenyl)pyrrolidine-3-carbonyl)-5-(morpholine-4-carbonyl)pyrrolidin-3-yl)-N-((1s,4R)-4-methylcyclohexyl)pivalamide hydrochloride]	74	–
CC(C)(C)C(=O)N([C@H]1C[C@@H](C(=O)N2CCOCC2)N(C(=O)[C@@H]2CN(C(C)(C)C)C[C@H]2c2ccc(Cl)cc2F)C1)[C@H]1CC[C@@H](C)CC1 [Example 4, N-((3S,5S)-1-((3S,4R)-1-(tert-butyl)-4-(4-chloro-2-fluorophenyl)pyrrolidine-3-carbonyl)-5-(morpholine-4-carbonyl)pyrrolidin-3-yl)-N-((1s,4R)-4-methylcyclohexyl)pivalamide hydrochloride]	30	–
CC1(C)CCC(N(C(=O)C(C)(C)C)[C@H]2C[C@@H](C(=O)N3CCOCC3)N(C(=O)[C@@H]3CN(C(C)(C)C)C[C@H]3c3ccc(Cl)cc3)C2)CC1 [Example 6, N-((3S,5S)-1-((3S,4R)-1-(tert-butyl)-4-(4-chlorophenyl)pyrrolidine-3-carbonyl)-5-(morpholine-4-carbonyl)pyrrolidin-3-yl)-N-(4,4-dimethylcyclohexyl)pivalamide hydrochloride]	–	32

The next lines start with the values.

Ki (Table 4-1) [nM]	Ki (Table 4-2) [nM]	Structure (SMILES)
240	–	CC(C)C(=O)N([C@H]1C[C@@H](C(=O)N2CCOCC2)N(C(=O)[C@@H]2CN(C(C)(C)C)C[C@H]2c2ccc(F)cc2F)C1)[C@H]1CC[C@@H](C)CC1 [Example 2, N-((3S,5S)-1-((3S,4R)-1-(tert-butyl)-4-(2,4-difluorophenyl)pyrrolidine-3-carbonyl)-5-(morpholine-4-carbonyl)pyrrolidin-3-yl)-N-((1s,4R)-4-methylcyclohexyl)isobutyramide hydrochloride]
–	86	CC(C)C(=O)N([C@H]1C[C@@H](C(=O)N2CCOCC2)N(C(=O)[C@@H]2CN(C(C)(C)C)C[C@H]2c2ccc(Cl)cc2F)C1)[C@H]1CC[C@@H](C)CC1 [Example 3, N-((3S,5S)-1-((3S,4R)-1-(tert-butyl)-4-(4-chloro-2-fluorophenyl)pyrrolidine-3-carbonyl)-5-(morpholine-4-carbonyl)pyrrolidin-3-yl)-N-((1s,4R)-4-methylcyclohexyl)isobutyramide hydrochloride]
